Results as given in article PMC11874377, “Fungal-derived methyldeoxaphomins target Plasmodium falciparum segregation through the inhibition of PfActin1” (Proceedings of the National Academy of Sciences of the …, 2025).
Read-outs that look alike come from different tables or passages of the source.

Test system: in vitro evolved NPDG-F-resistant Dd2-Pol δ clones (PfActin1 mutations)
Assay: Resistant parasite phenotyping and cross resistance, SYBR green I EC50 assay, NPDG-F-resistant clones
Format: cell-based, Plasmodium falciparum
Details: for EC50: Plasmodium falciparum, read-out: EC50 (mean ± SEM)
Experimental: Cloning by limiting dilution was then performed to isolate individual lines from the bulk population. Due to the multiple mutations identified in the first biological replicate, we isolated four clones from this bulk culture as compared to two clones each from the second and third replicates. These clones were phenotyped via a SYBR green I-based dose–response assay (Table 2 and Fig. 2B). […] The DNA of these clones was then extracted and subjected to whole-genome sequencing.
To investigate whether NPDG-F has the same mode of action as cytochalasin D, we tested our clones for sensitivity to both cytochalasin D and jasplakinolide.
Resistant parasite phenotyping and cross resistance measurement
The EC50 assay was performed at 1% parasitemia, 1% hematocrit with SYBR green I in 96-well plates. The highest final concentration of the methyldeoxaphomin NPDG-F was set at 100 μM. Briefly, the compound was subjected to a 3-fold serial dilution with ten dilution points. Three technical replicates were set up at each dilution point. The Dd2-Pol δ parent line and the resistant parasites at 2% hematocrit and 1% parasitemia were added to the drug media at 1:1 ratio. The plate was incubated at 37°C for 72 hours in a chamber filled with a hypoxic gas mixture (3% oxygen, 5% carbon dioxide, and 92% nitrogen). After incubation, the cells were lysis with lysis buffer (20 mM Tris-HCL, 0.08% saponin, 5 mM EDTA, and 0.8% Triton X-100) containing SYBR green I (10,000X, Thermo Fisher, cat # S7563) overnight. Fluorescence was measured at 485nm excitation and 530nm emission using a PHERAstar FSX plate reader (BMG Labtech, Germany). Dose response curves were graphed with Prism 9 Version 9.5.1. […]

For C=C1C(C)C2C(Cc3ccccc3)NC(=O)C23C(=O)C=CC(O)C(O)C(C)CC(C)CC=CC3C1O (stereo not drawn) [Methyldeoxaphomin NPDG-F], the “average EC50 shift, clones from flasks 2 and 3” value (A136S) was 3.5 fold, the “average EC50 shift, clones from flask 1” value (A171V/S and I290L clones) was 2.6 fold and the EC50 (DD2, clone 1-C7, A171S (8%), A171V (92%), I290L) was 11.5 µM. It also gave an EC50 (DD2, clone 1-D6, A171S (3%), A171V (97%), I290L) of 7.79 µM, an EC50 (DD2, clone 1-D7, A171S (22%), A171V (78%), I290L) of 9.02 µM and an EC50 (DD2, clone 1-F3, A171S (4%), A171V (96%), I290L) of 7.04 µM. For the same compound, the EC50 (DD2, clone 2-C4, A136S) was 14.1 µM, the EC50 (DD2, clone 2-F5, A136S) was 10.2 µM and the EC50 (DD2, clone 3-C3, A136S) was 12.7 µM. For the same compound, the EC50 (DD2, clone 3-C5, A136S) was 10 µM, the Fold change (clone 1-C7 vs Dd2-Pol δ parent) was 3.3 and the Fold change (clone 1-D6 vs Dd2-Pol δ parent) was 2.3. For the same compound, the Fold change (clone 1-D7 vs Dd2-Pol δ parent) was 2.6, the Fold change (clone 1-F3 vs Dd2-Pol δ parent) was 2.1 and the Fold change (clone 2-C4 vs Dd2-Pol δ parent) was 4.1. The Fold change (clone 2-F5 vs Dd2-Pol δ parent) was 3.0, the Fold change (clone 3-C3 vs Dd2-Pol δ parent) was 3.7 and the Fold change (clone 3-C5 vs Dd2-Pol δ parent) was 2.9.
